The text below walks through data of PubChem BioAssay AID342 (DTP/NCI, 2004).

This assay has as its system Swiss mice, Sarcoma 180 sc, mean tumor weight T/C. The assay can be described thus: NCI In Vivo Anticancer Drug Screen. Data for tumor model Sarcoma 180 (subcutaneous) in Swiss mice. The settings on record: endpoint: mean tumor weight, higher = larger tumour. The method in brief: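 Antitumor activity is assessed in mice with transplantable tumors. Treated (T) and vehicle control (C) groups are compared on survival or tumor size.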

Structures are written as SMILES. Several values for one entry are separate records, joined by “and”; a condition that tells them apart may be missing. Equal values may be shown once.

With `CN(C)[C@@H]1C(=O)C(C(=O)NCNC(CO)(CO)CO)=C(O)[C@@]2(O)C(=O)C3=C(O)c4c(O)cccc4[C@@](C)(O)[C@H]3C[C@@H]12`, the T/C (in general, the result in the treated group divided by that in the control group, in per cent) is 65 % of control (dose: 55.0 mg/kg/injection, schedule: Q#A X014 (ip), vehicle: saline); 93 % of control (dose: 83.0 mg/kg/injection, schedule: Q#A X014 (ip), vehicle: saline); 83 % of control (dose: 100.0 mg/kg/injection, schedule: Q01DX007 (ip), vehicle: methylcellulose (MC)); 119 % of control (dose: 100.0 mg/kg/injection, schedule: Q01DX007 (ip), vehicle: saline); 52 % of control (dose: 125.0 mg/kg/injection, schedule: Q#A X014 (ip), vehicle: saline); 62 % of control (dose: 140.0 mg/kg/injection, schedule: Q01DX007 (ip), vehicle: methylcellulose (MC)). In addition, the T/C is 83 % of control (dose: 140.0 mg/kg/injection, schedule: Q01DX007 (ip), vehicle: saline); 38 % of control (dose: 210.0 mg/kg/injection, schedule: Q01DX007 (ip), vehicle: methylcellulose (MC)); 86 % of control (dose: 210.0 mg/kg/injection, schedule: Q01DX007 (ip), vehicle: other); 65 % of control (dose: 210.0 mg/kg/injection, schedule: Q01DX007 (ip), vehicle: saline); 33 % of control (dose: 320.0 mg/kg/injection, schedule: Q01DX007 (ip), vehicle: methylcellulose (MC)).
For `CC(=O)OCC(=O)[C@@]1(O)[C@H](C)C[C@H]2[C@@H]3C=C(C)C4=Cc5c(cnn5-c5ccc(F)cc5)C[C@]4(C)[C@H]3[C@@H](O)C[C@@]21C`, the T/C was 108 % of control (dose: 0.44 mg/kg/injection, schedule: Q01DX007 (sc), vehicle: steriod suspending solution); 85 % of control (dose: 0.66 mg/kg/injection, schedule: Q01DX007 (sc), vehicle: steriod suspending solution); 23 % of control and 34 % of control (dose: 2.25 mg/kg/injection, schedule: Q01DX007 (sc), vehicle: steriod suspending solution); 37 % of control and 44 % of control and 62 % of control (dose: 3.38 mg/kg/injection, schedule: Q01DX007 (sc), vehicle: steriod suspending solution); 26 % of control and 49 % of control (dose: 5.07 mg/kg/injection, schedule: Q01DX007 (sc), vehicle: steriod suspending solution); 24 % of control (dose: 7.61 mg/kg/injection, schedule: Q01DX007 (sc), vehicle: steriod suspending solution). Also, the T/C (dose: 11.42 mg/kg/injection, schedule: Q01DX007 (sc), vehicle: steriod suspending solution) was 24 % of control.
Take `Cc1ccccn1`: the T/C is 87 % of control (dose: 200.0 mg/kg/injection, schedule: Q01DX007 (ip), vehicle: saline) and 151 % of control (dose: 400.0 mg/kg/injection, schedule: Q01DX007 (ip), vehicle: saline).
Take `O=P1(N(CCCl)CCCl)NCCCO1` (stereo unspecified): the T/C reads like this: (dose: 12.5 mg/kg/injection, schedule: Q01DX007 (ip), vehicle: carboxymethylcellulose (CMC)) 50 % of control and 55 % of control; (dose: 15.0 mg/kg/injection, schedule: Q01DX007 (ip), vehicle: carboxymethylcellulose (CMC)) 88 % of control; (dose: 23.88 mg/kg/injection, schedule: Q01DX007 (ip), vehicle: carboxymethylcellulose (CMC)) 101 % of control; (dose: 25.0 mg/kg/injection, schedule: Q01DX007 (ip), vehicle: carboxymethylcellulose (CMC)) 70 % of control; (dose: 29.85 mg/kg/injection, schedule: Q01DX007 (ip), vehicle: carboxymethylcellulose (CMC)) 97 % of control; (dose: 30.0 mg/kg/injection, schedule: Q01DX007 (ip), vehicle: carboxymethylcellulose (CMC)) 25 % of control. The T/C was 72 % of control (dose: 39.8 mg/kg/injection, schedule: Q01DX007 (ip), vehicle: carboxymethylcellulose (CMC)); 34 % of control (dose: 59.7 mg/kg/injection, schedule: Q01DX007 (ip), vehicle: carboxymethylcellulose (CMC)); 4 % of control (dose: 60.0 mg/kg/injection, schedule: Q01DX007 (ip), vehicle: carboxymethylcellulose (CMC)); 4 % of control (dose: 80.0 mg/kg/injection, schedule: Q01DX007 (ip), vehicle: carboxymethylcellulose (CMC)); 65 % of control (dose: 746.25 mg/kg/injection, schedule: Q#A X014 (ip), vehicle: carboxymethylcellulose (CMC)); 45 % of control (dose: 1492.5 mg/kg/injection, schedule: Q#A X014 (ip), vehicle: carboxymethylcellulose (CMC)). The T/C is 7 % of control (dose: 2985.0 mg/kg/injection, schedule: Q#A X014 (ip), vehicle: carboxymethylcellulose (CMC)) and 67 % of control (dose: 3731.0 mg/kg/injection, schedule: Q#A X014 (ip), vehicle: carboxymethylcellulose (CMC)).
Consider `C[C@]12CCC(=O)C=C1CC[C@@H]1[C@@H]2[C@@H](O)C[C@@]2(C)[C@H]1CC[C@]2(O)C(=O)COC(=O)c1ccc([N+](=O)[O-])cc1Cl`, for which the T/C runs as follows: (dose: 12.5 mg/kg/injection, schedule: Q#A X014 (sc), vehicle: steriod suspending solution) 79 % of control; (dose: 25.0 mg/kg/injection, schedule: Q#A X014 (sc), vehicle: steriod suspending solution) 67 % of control; (dose: 50.0 mg/kg/injection, schedule: Q#A X014 (sc), vehicle: steriod suspending solution) 38 % of control; (dose: 100.0 mg/kg/injection, schedule: Q#A X014 (sc), vehicle: steriod suspending solution) 32 % of control.
With `CCCCn1cnc2c(=S)nc(N)[nH]c21`, the T/C is 82 % of control (dose: 1.65 mg/kg/injection, schedule: Q#A X014 (ip), vehicle: methylcellulose (MC)); 93 % of control (dose: 2.5 mg/kg/injection, schedule: Q#A X014 (ip), vehicle: methylcellulose (MC)); 62 % of control (dose: 3.75 mg/kg/injection, schedule: Q#A X014 (ip), vehicle: methylcellulose (MC)); 49 % of control (dose: 5.5 mg/kg/injection, schedule: Q#A X014 (ip), vehicle: methylcellulose (MC)).
As to `CC(=O)C1=C(O)C2(O)C(=O)c3c(c(C)c4ccc(C)c(O)c4c3O)CC2C(N)C1=O` (stereo unspecified), the T/C (dose: 18.8 mg/kg/injection, schedule: Q01DX007 (ip), vehicle: saline) is 114 % of control; the T/C (dose: 37.5 mg/kg/injection, schedule: Q01DX007 (ip), vehicle: saline) was 112 % of control; the T/C (dose: 75.0 mg/kg/injection, schedule: Q01DX007 (ip), vehicle: saline) was 81 % of control; the T/C (dose: 150.0 mg/kg/injection, schedule: Q01DX007 (ip), vehicle: saline) is 104 % of control.
